Test results as given in patent US20230212116A1, “SARS-COV-2 MAIN PROTEASE INHIBITORS” (TEXAS A&M UNIVERSITY SYSTEM, priority 2020, published 2023).

Target: SARS-CoV-2 M^Pro (Severe acute respiratory syndrome coronavirus 2, UniProt P0DTD1)
Assay: biochemical
Format: biochemical
Conditions: not given

Going from `CC(C)C[C@H](NC(=O)OCc1ccccc1)C(=O)NN(CCC(N)=O)C(=O)OCC(F)(F)F` [MPI46, 2,2,2-trifluoroethyl 1-(3-amino-3-oxopropyl)-2-(((benzyloxy)carbonyl)-L-leucyl)hydrazine-1-carboxylate] to `CC(C)C[C@H](NC(=O)OCc1ccccc1)C(=O)NN(CCC(N)=O)C(=O)Oc1ccc(F)cc1` [MPI47, 4-fluorophenyl 1-(3-amino-3-oxopropyl)-2-(((benzyloxy)carbonyl)-L-leucyl)hydrazine-1-carboxylate], the IC50 falls from over 10000 nM to 1040 nM. The second is the more potent here.

Going from `C=CC(=O)N(CCC(N)=O)NC(=O)[C@H](CC(C)C)NC(=O)[C@@H](NC(=O)OCc1ccccc1)[C@@H](C)OC(C)(C)C` [MPI50, benzyl ((2S,3R)-1-(((S)-1-(2-acryloyl-2-(3-amino-3-oxopropyl)hydrazineyl)-4-methyl-1-oxopentan-2-yl)amino)-3-(tert-butoxy)-1-oxobutan-2-yl)carbamate] to `CC1(C)[C@@H]2[C@@H](C(=O)N[C@H](C=O)C[C@@H]3CCNC3=O)N(C(=O)[C@H](Cc3ccccc3)NC(=O)OCc3ccccc3)C[C@@H]21` [MPI94, benzyl ((S)-1-((1R,2S,5S)-6,6-dimethyl-2-(((S)-1-oxo-3-((S)-2-oxopyrrolidin-3-yl)propan-2-yl)carbamoyl)-3-azabicyclo[3.1.0]hexan-3-yl)-1-oxo-3-phenylpropan-2-yl)carbamate], the IC50 rises from 109 nM to 267 ± 44 nM (2.4-fold). The first is the more potent here.

Same assay, conditions: 20 nM enzyme (10 nM for MPI3), 10 μM substrate, 37° C., 30 min enzyme-inhibitor incubation

In the case of `CC(C)[C@H](NC(=O)OCc1ccccc1)C(=O)N[C@@H](Cc1cccs1)C(=O)N[C@H](C=O)C[C@@H]1CCNC1=O` [MPI13, Benzyl ((S)-3-methyl-1-oxo-1-(((S)-1-oxo-1-(((S)-1-oxo-3-((S)-2-oxopyrrolidin-3-yl)propan-2-yl)amino)-3-(thiophen-2-yl)propan-2-yl)amino)butan-2-yl)carbamate], the “Enzymatic IC50” value is reported as “(insoluble)”.

Same assay, conditions: read-out: Enzymatic IC50

Compared with `C=CC(=O)N(Cc1cc(=O)[nH]c(=O)[nH]1)NC(=O)[C@H](CC(C)C)NC(=O)[C@@H](NC(=O)OCc1ccccc1)C(C)C` [MPI35, benzyl ((S)-1-(((S)-1-(2-acryloyl-2-((2,6-dioxo-1,2,3,6-tetrahydropyrimidin-4-yl)methyl)hydrazineyl)-4-methyl-1-oxopentan-2-yl)amino)-3-methyl-1-oxobutan-2-yl)carbamate], `C=CC(=O)N(CCC(N)=O)NC(=O)[C@H](CC(C)C)NC(=O)[C@@H](NC(=O)OCc1ccccc1)C(C)C` [MPI51, benzyl ((S)-1-(((S)-1-(2-acryloyl-2-(3-amino-3-oxopropyl)hydrazineyl)-4-methyl-1-oxopentan-2-yl)amino)-3-methyl-1-oxobutan-2-yl)carbamate] is 120-fold lower in IC50: 4280 ± 278 nM for the first, 36 nM for the second. The second is the more potent here.

Compared with `CCC(=O)N(CCC(N)=O)NC(=O)[C@H](CC(C)C)NC(=O)OCc1ccccc1` [MPI36, benzyl (S)-(1-(2-(3-amino-3-oxopropyl)-2-propionylhydrazineyl)-4-methyl-1-oxopentan-2-yl)carbamate], `CC(C)C[C@H](NC(=O)OCc1ccccc1)C(=O)NN(CCC(N)=O)C(=O)CCl` [MPI37, benzyl (S)-(1-(2-(3-amino-3-oxopropyl)-2-(2-chloroacetyl)hydrazineyl)-4-methyl-1-oxopentan-2-yl)carbamate] is lower in IC50: over 10000 nM for the first, 64 nM for the second. The second is the more potent here.

First: C=CC(=O)N(CCC(N)=O)NC(=O)[C@H](CC(C)C)NC(=O)OCc1ccccc1 [MPI38, benzyl (S)-(1-(2-acryloyl-2-(3-amino-3-oxopropyl)hydrazineyl)-4-methyl-1-oxopentan-2-yl)carbamate]
Second: CC(C)C[C@H](NC(=O)OCc1ccccc1)C(=O)NN(CCC(N)=O)C(=O)[C@@H](C)Cl [MPI39, benzyl ((S)-1-(2-(3-amino-3-oxopropyl)-2-((R)-2-chloropropanoyl)hydrazineyl)-4-methyl-1-oxopentan-2-yl)carbamate]
The IC50 of the first is 7.9-fold lower: 640 nM for the first, 5038 ± 13 nM for the second.

Compared with `CC(C)C[C@H](NC(=O)OCc1ccccc1)C(=O)NN(CCC(N)=O)C(=O)[C@H](C)Cl` [MPI40, benzyl ((S)-1-(2-(3-amino-3-oxopropyl)-2-((S)-2-chloropropanoyl)hydrazineyl)-4-methyl-1-oxopentan-2-yl)carbamate], `CC(C)C[C@H](NC(=O)OCc1ccccc1)C(=O)NN(CCC(N)=O)C(=O)/C=C/CN(C)C` [MPI43, benzyl (S,E)-(1-(2-(3-amino-3-oxopropyl)-2-(4-(dimethylamino)but-2-enoyl)hydrazineyl)-4-methyl-1-oxopentan-2-yl)carbamate] is higher in IC50: 1620 ± 153 nM for the first, over 10000 nM for the second. The first is the more potent here.

`CC(C)C[C@H](NC(=O)OCc1ccccc1)C(=O)NN(CCC(N)=O)C(=O)c1cc([N+](=O)[O-])ccc1F` [MPI41, benzyl (S)-(1-(2-(3-amino-3-oxopropyl)-2-(2-fluoro-5-nitrobenzoyl)hydrazineyl)-4-methyl-1-oxopentan-2-yl)carbamate] and `CC(C)C[C@H](NC(=O)OCc1ccccc1)C(=O)NN(CCC(N)=O)C(=O)COc1ccc([N+](=O)[O-])cc1` [MPI44, benzyl (S)-(1-(2-(3-amino-3-oxopropyl)-2-(2-(4-nitrophenoxy)acetyl)hydrazineyl)-4-methyl-1-oxopentan-2-yl)carbamate] cannot be ordered by IC50: 39000 nM for the first, over 10000 nM for the second.

`C=C(Cc1ccccc1)C(=O)N(CCC(N)=O)NC(=O)[C@H](CC(C)C)NC(=O)OCc1ccccc1` [MPI42, benzyl (S)-(1-(2-(3-amino-3-oxopropyl)-2-(2-benzylacryloyl)hydrazineyl)-4-methyl-1-oxopentan-2-yl)carbamate] and `CC(C)C[C@H](NC(=O)OCc1ccccc1)C(=O)NN(CCC(N)=O)C(=O)COc1ccc(F)cc1` [MPI45, benzyl (S)-(1-(2-(3-amino-3-oxopropyl)-2-(2-(4-fluorophenoxy)acetyl)hydrazineyl)-4-methyl-1-oxopentan-2-yl)carbamate] cannot be ordered by IC50: over 10000 nM for the first, over 10000 nM for the second.

First: C=CC(=O)N(CCC(N)=O)NC(=O)[C@H](CC1CCCCC1)NC(=O)[C@@H](NC(=O)OCc1ccccc1)[C@@H](C)OC(C)(C)C [MPI52, benzyl ((2S,3R)-1-(((S)-1-(2-acryloyl-2-(3-amino-3-oxopropyl)hydrazineyl)-3-cyclohexyl-1-oxopropan-2-yl)amino)-3-(tert-butoxy)-1-oxobutan-2-yl)carbamate]
Second: C[C@@H](OC(C)(C)C)[C@H](NC(=O)OCc1ccccc1)C(=O)N[C@@H](CC1CCCCC1)C(=O)NN(CCC(N)=O)C(=O)CCl [MPI53, benzyl ((2S,3R)-1-(((S)-1-(2-(3-amino-3-oxopropyl)-2-(2-chloroacetyl)hydrazineyl)-3-cyclohexyl-1-oxopropan-2-yl)amino)-3-(tert-butoxy)-1-oxobutan-2-yl)carbamate]
The IC50 of the first is 3.1-fold lower: 61 ± 1.2 nM for the first, 189 nM for the second. The first is the more potent here.

`CC(C)(C)NC(=O)N[C@H](C(=O)N1C[C@H]2[C@@H]([C@H]1C(=O)N[C@@H](C[C@@H]1CCNC1=O)C(=O)C(=O)NCc1ccccc1)C2(C)C)C(C)(C)C` [MPI63, (1R,2S,5S)-N-((S)-4-(benzylamino)-3,4-dioxo-1-((S)-2-oxopyrrolidin-3-yl)butan-2-yl)-3-((S)-2-(3-(tert-butyl)ureido)-3,3-dimethylbutanoyl)-6,6-dimethyl-3-azabicyclo[3.1.0]hexane-2-carboxamide] and `C[C@@H](OC(C)(C)C)[C@H](NC(=O)NC(C)(C)C)C(=O)N1C[C@H]2[C@@H]([C@H]1C(=O)N[C@H](C=O)C[C@@H]1CCNC1=O)C2(C)C` [MPI68, (1R,2S,5S)-3-(O-(tert-butyl)-N-(tert-butylcarbamoyl)-L-threonyl)-6,6-dimethyl-N-((S)-1-oxo-3-((S)-2-oxopyrrolidin-3-yl)propan-2-yl)-3-azabicyclo[3.1.0]hexane-2-carboxamide] are within 1.5-fold of each other in IC50: 103 ± 1.5 nM for the first, 97 nM for the second.

First: CC(C)[C@H](NC(=O)NC(C)(C)C)C(=O)N[C@@H](CC1CC1)C(=O)N[C@H](C=O)C[C@@H]1CCNC1=O [MPI64, (S)-2-(3-(tert-butyl)ureido)-N-((S)-3-cyclopropyl-1-oxo-1-(((S)-1-oxo-3-((S)-2-oxopyrrolidin-3-yl)propan-2-yl)amino)propan-2-yl)-3-methylbutanamide]
Second: C[C@@H](OC(C)(C)C)[C@H](NC(=O)OCc1ccccc1)C(=O)N[C@@H](CC1CCCCC1)C(=O)N[C@@H](C[C@@H]1CCNC1=O)C(O)S(=O)(=O)O (stereo partly drawn) [MPI65, sodium (5S,8S,11S)-5-((R)-1-(tert-butoxy)ethyl)-8-(cyclohexylmethyl)-12-hydroxy-3,6,9-trioxo-11-(((S)-2-oxopyrrolidin-3-yl)methyl)-1-phenyl-2-oxa-4,7,10-triazadodecane-12-sulfonate]
The IC50 of the first is 11-fold lower: 26.1 ± 1.4 nM for the first, 294 ± 15 nM for the second.

First: CC(C)C[C@H](NC(=O)[C@@H](NC(=O)OCc1ccccc1)C(C)C)C(=O)N[C@@H](C[C@@H]1CCNC1=O)C(O)C#N (stereo partly drawn) [MPI66, benzyl ((2S)-1-(((2S)-1-(((2S)-1-cyano-1-hydroxy-3-((S)-2-oxopyrrolidin-3-yl)propan-2-yl)amino)-4-methyl-1-oxopentan-2-yl)amino)-3-methyl-1-oxobutan-2-yl)carbamate]
Second: C[C@@H](OC(C)(C)C)[C@H](NC(=O)OCc1ccccc1)C(=O)N[C@@H](CC1CCCCC1)C(=O)N[C@@H](C[C@@H]1CCNC1=O)C(=O)C(N)=O [MPI86, benzyl ((2S,3R)-1-(((S)-1-(((S)-4-amino-3,4-dioxo-1-((S)-2-oxopyrrolidin-3-yl)butan-2-yl)amino)-3-cyclohexyl-1-oxopropan-2-yl)amino)-3-(tert-butoxy)-1-oxobutan-2-yl)carbamate]
The IC50 of the first is 8.9-fold lower: 18.8 ± 0.8 nM for the first, 167 ± 14 nM for the second.

First: C=CC(=O)N(C[C@@H]1CCC(=O)N1)NC(=O)[C@@H]1[C@@H]2[C@H](CN1C(=O)[C@@H](NC(=O)NC(C)(C)C)[C@@H](C)OC(C)(C)C)C2(C)C [MPI69, 1-((2S,3R)-1-((1R,2S,5S)-2-(2-acryloyl-2-(((S)-5-oxopyrrolidin-2-yl)methyl)hydrazine-1-carbonyl)-6,6-dimethyl-3-azabicyclo[3.1.0]hexan-3-yl)-3-(tert-butoxy)-1-oxobutan-2-yl)-3-(tert-butyl)urea]
Second: C=CC(=O)N(CCC(N)=O)NC(=O)[C@@H]1[C@@H]2[C@H](CN1C(=O)[C@@H](NC(=O)NC(C)(C)C)[C@@H](C)OC(C)(C)C)C2(C)C [MPI70, 3-(1-acryloyl-2-((1R,2S,5S)-3-(O-(tert-butyl)-N-(tert-butylcarbamoyl)-L-threonyl)-6,6-dimethyl-3-azabicyclo[3.1.0]hexane-2-carbonyl)hydrazineyl)propanamide]
The IC50 of the first is higher: over 2000 nM for the first, 136 ± 17 nM for the second. The second is the more potent here.
